# Target: T1, CD73 (Homo sapiens, UniProt P21589)
# T1 sequence (P21589 27-549): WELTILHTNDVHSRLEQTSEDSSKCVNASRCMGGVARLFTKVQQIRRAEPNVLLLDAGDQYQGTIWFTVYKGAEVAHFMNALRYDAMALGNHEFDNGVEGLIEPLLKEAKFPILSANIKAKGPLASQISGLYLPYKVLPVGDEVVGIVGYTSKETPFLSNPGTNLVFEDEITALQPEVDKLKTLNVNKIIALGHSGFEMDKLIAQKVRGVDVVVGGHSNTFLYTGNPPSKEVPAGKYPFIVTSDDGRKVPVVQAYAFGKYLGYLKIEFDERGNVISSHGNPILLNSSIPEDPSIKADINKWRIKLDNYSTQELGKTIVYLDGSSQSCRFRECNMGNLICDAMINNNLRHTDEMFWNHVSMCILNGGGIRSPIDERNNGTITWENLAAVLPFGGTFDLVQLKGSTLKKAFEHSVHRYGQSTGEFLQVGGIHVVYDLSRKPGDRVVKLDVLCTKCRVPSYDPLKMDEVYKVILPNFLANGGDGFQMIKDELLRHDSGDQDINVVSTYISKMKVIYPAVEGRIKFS
# Assay: Example A1: Biochemical Assay (CD73 inhibition, Malachite Green detection of AMP hydrolysis)
# Conditions: CD73 0.3208 nM, AMP 15 μM, Tris-HCl pH 7.4, Malachite Green, absorbance 620 nm; read-out: Biochemical IC50
# Method: Example A1: Biochemical Assay
# Assay Reaction Conditions
# • Assay Volume: 70 μl • Reaction Volume: 50 μl • CD73: 0.3208 nM • AMP: 15 μM • Assay Buffer: 2 5 mM Tris-HCL, pH 7.4, 0.01% Brij-35, 0.01% BSA, 5 mM MgCl2 Assay Procedure:
# Made dose titration of testing compounds in assay buffer, 10 points ½ log titrations in duplicates starting at 100 μM.
# Added 25 μl of CD73 to each well for a final concentration of […].
# Incubated at RT for 15 min.
# Added 25 μl of AMP to each well for a final concentration of 15 μM.
# Incubated at RT for 10 min.
# Added 10 μl of Malachite Green Reagent A, incubate at RT for 10 min.
# Added 10 μl of Malachite Green Reagent B, incubate at RT for 45 min.
# Read the Absorbance on Envision plate reader using excitation filter: Cy5 […].
# The ability of the compounds disclosed herein to inhibit CD73 activity was quantified and the respective IC50 values were determined. Table 1 provides the biochemical IC50 values of compounds disclosed herein.
row,SMILES,IC50
1,"CN(c1nc(Cl)nc2c1cnn2[C@@H]1O[C@H](COP(=O)(O)CP(=O)(O)O)[C@@H](O)[C@H]1O)[C@@H]1CCc2ccccc21 [Example 38, (((((2R,3S,4R,5R)-5-(6-chloro-4-(((R)-2,3-dihydro-1H-inden-1-yl)(methyl)amino)-1H-pyrazolo[3,4-d]pyrimidin-1-yl)-3,4-dihydroxytetrahydrofuran-2-yl)methoxy)(hydroxy)phosphoryl)methyl)phosphonic acid]",< 100 nM
2,"O=P(O)(O)CP(=O)(O)OC[C@H]1O[C@@H](n2nnc3c(NCc4ccccc4Cl)nc(Cl)nc32)[C@H](O)[C@@H]1O [Example 6, (((((2R,3S,4R,5R)-5-(5-chloro-7-((2-chlorobenzyl)amino)-3H-[1,2,3]triazolo[4,5-d]pyrimidin-3-yl)-3,4-dihydroxytetrahydrofuran-2-yl)methoxy)(hydroxy)phosphoryl)methyl) phosphonic acid]",< 100 nM
3,"C[C@@H](c1ccccc1)N(C)c1nc(Cl)nc2c1nnn2[C@@H]1O[C@H](COP(=O)(O)CP(=O)(O)O)[C@@H](O)[C@H]1O [Example 13, (((((2R,3S,4R,5R)-5-(5-chloro-7-(methyl((S)-1-phenylethyl)amino)-3H-[1,2,3]triazolo[4,5-d]pyrimidin-3-yl)-3,4-dihydroxytetrahydrofuran-2-yl)methoxy)(hydroxy)phosphoryl)methyl) phosphonic acid]",< 100 nM
4,"COP(=O)(CP(=O)(O)O)OC[C@H]1O[C@@H](n2nnc3c(N(C)[C@H]4CCc5ccccc54)nc(Cl)nc32)[C@H](O)[C@@H]1O (stereo partly drawn) [Example 24, (((((2R,3S,4R,5R)-5-(5-Chloro-7-(((S)-2,3-dihydro-1H-inden-1-yl)(methyl)amino)-3H-[1,2,3]triazolo[4,5-d]pyrimidin-3-yl)-3,4-dihydroxytetrahydrofuran-2-yl)methoxy)(methoxy)phosphoryl)methyl)phosphonic acid]",< 100 nM
5,"O=P(O)(O)CP(=O)(O)OC[C@H]1O[C@@H](n2nnc3c(N4CCCC[C@@H]4c4ccccc4)nc(Cl)nc32)[C@H](O)[C@@H]1O [Example 10, (((((2R,3S,4R,5R)-5-(5-chloro-7-((R)-2-phenylpiperidin-1-yl)-3H-[1,2,3]triazolo[4,5-d]pyrimidin-3-yl)-3,4-dihydroxytetrahydrofuran-2-yl)methoxy)(hydroxy)phosphoryl)methyl) phosphonic acid]",100 to 1000 nM
6,"CN(Cc1ccccc1)c1nc(Cl)nc2c1nnn2[C@@H]1O[C@H](COP(=O)(O)CP(=O)(O)O)C[C@H]1O [Example 22, (((((2S,4R,5R)-5-(7-(benzyl(methyl)amino)-5-chloro-3H-[1,2,3]triazolo[4,5-d]pyrimidin-3-yl)-4-hydroxytetrahydrofuran-2-yl)methoxy)(hydroxy)phosphoryl)methyl)phosphonic acid]",100 to 1000 nM
7,"CO[P@](=O)(CP(=O)(O)O)OC[C@H]1O[C@@H](n2nnc3c(NCc4ccccc4Cl)nc(Cl)nc32)[C@H](O)[C@@H]1O [Example 27, (((R)-(((2R,3S,4R,5R)-5-(5-Chloro-7-((2-chlorobenzyl)amino)-3H-[1,2,3]triazolo[4,5-d]pyrimidin-3-yl)-3,4-dihydroxytetrahydrofuran-2-yl)methoxy)(methoxy)phosphoryl)methyl)phosphonic acid]",100 to 1000 nM
8,"CN(Cc1ccccc1)c1nc(Cl)nc2c1cnn2[C@@H]1O[C@H](COP(=O)(O)CP(=O)(O)O)C[C@H]1O [Example 47, (((((2S,4R,5R)-5-(4-(benzyl(methyl)amino)-6-chloro-1H-pyrazolo[3,4-d]pyrimidin-1-yl)-4-hydroxytetrahydrofuran-2-yl)methoxy)(hydroxy)phosphoryl)methyl) phosphonic acid]",< 100 nM
9,"Cc1nn([C@@H]2O[C@H](COP(=O)(O)CP(=O)(O)O)[C@@H](O)[C@H]2O)c2nc(Cl)nc(N(C)Cc3ccccc3)c12 [Example 43, (((((2R,3S,4R,5R)-5-(4-(benzyl(methyl)amino)-6-chloro-3-methyl-1H-pyrazolo[3,4-d]pyrimidin-1-yl)-3,4-dihydroxytetrahydrofuran-2-yl)methoxy)(hydroxy)phosphoryl)methyl) phosphonic acid]",< 100 nM
10,"COP(=O)(CP(=O)(O)O)OC[C@H]1O[C@@H](n2ncc3c(NCc4ccccc4Cl)nc(Cl)nc32)[C@H](O)[C@@H]1O (stereo partly drawn) [Example 49, (((((2R,3S,4R,5R)-5-(6-chloro-4-((2-chlorobenzyl)amino)-1H-pyrazolo[3,4-d]pyrimidin-1-yl)-3,4-dihydroxytetrahydrofuran-2-yl)methoxy)(methoxy)phosphoryl)methyl) phosphonic acid]",< 100 nM
11,"C[C@H](Nc1nc(Cl)nc2c1nnn2[C@@H]1O[C@H](COP(=O)(O)CP(=O)(O)O)[C@@H](O)[C@H]1O)c1ccccc1Cl [Example 9, (((((2R,3S,4R,5R)-5-(5-chloro-7-(((S)-1-(2-chlorophenyl)ethyl)amino)-3H-[1,2,3]triazolo[4,5-d]pyrimidin-3-yl)-3,4-dihydroxytetrahydrofuran-2-yl)methoxy)(hydroxy)phosphoryl)methyl) phosphonic acid]",< 100 nM
12,"O=P(O)(O)CP(=O)(O)OC[C@H]1OC(n2nnc3c(NC4CCc5ccccc54)nc(Cl)nc32)[C@H](O)[C@@H]1O (stereo in doubt) [Example 31, (((((2R,3S,4R,5S)-5-(5-chloro-7-(((R)-2,3-dihydro-1H-inden-1-yl)amino)-3H-[1,2,3]triazolo[4,5-d]pyrimidin-3-yl)-3,4-dihydroxytetrahydrofuran-2-yl)methoxy)(hydroxy)phosphoryl)methyl) phosphonic acid]",< 100 nM
13,"COP(=O)(CP(=O)(O)O)OC[C@H]1O[C@@H](n2ncc3c(N(C)C4CCc5ccccc54)nc(Cl)nc32)[C@H](O)[C@@H]1O (stereo partly drawn) [Example 39, (((((2R,3S,4R,5R)-5-(6-Chloro-4-(((R)-2,3-dihydro-1H-inden-1-yl)(methyl)amino)-1H-pyrazolo[3,4-d]pyrimidin-1-yl)-3,4-dihydroxytetrahydrofuran-2-yl)methoxy)(methoxy)phosphoryl)methyl)phosphonic acid]",< 100 nM
14,"O=P(O)(O)CP(=O)(O)OC[C@H]1O[C@@H](n2nnc3c(NCc4ccccc4)nc(Cl)nc32)[C@H](O)[C@@H]1O [Example 1, (((((2R,3S,4R,5R)-5-(7-(Benzylamino)-5-chloro-3H-[1,2,3]triazolo[4,5-d]pyrimidin-3-yl)-3,4-dihydroxytetrahydrofuran-2-yl)methoxy)(hydroxy)phosphoryl)methyl)phosphonic acid]",100 to 1000 nM
15,"CN(Cc1ccccc1)c1nc(Cl)nc2c1nnn2[C@@H]1O[C@H](COP(=O)(O)CP(=O)(O)O)[C@@H](O)[C@H]1O [Example 15, (((((2R,3S,4R,5R)-5-(7-(benzyl(methyl)amino)-5-chloro-3H-[1,2,3]triazolo[4,5-d]pyrimidin-3-yl)-3,4-dihydroxytetrahydrofuran-2-yl)methoxy)(hydroxy)phosphoryl)methyl) phosphonic acid]",< 100 nM
16,"O=P(O)(O)CP(=O)(O)OC[C@H]1O[C@@H](n2nnc3c(NCC4CC4)nc(Cl)nc32)[C@H](O)[C@@H]1O [Example 5, (((((2R,3S,4R,5R)-5-(5-chloro-7-((cyclopropylmethyl)amino)-3H-[1,2,3]triazolo[4,5-d]pyrimidin-3-yl)-3,4-dihydroxytetrahydrofuran-2-yl)methoxy)(hydroxy)phosphoryl)methyl) phosphonic acid]",100 to 1000 nM
17,"C[C@H](Nc1nc(Cl)nc2c1nnn2[C@@H]1O[C@H](COP(=O)(O)CP(=O)(O)O)[C@@H](O)[C@H]1O)c1ccccc1 [Example 8, (((((2R,3S,4R,5R)-5-(5-chloro-7-(((S)-1-phenylethyl)amino)-3H-[1,2,3]triazolo[4,5-d]pyrimidin-3-yl)-3,4-dihydroxytetrahydrofuran-2-yl)methoxy)(hydroxy)phosphoryl)methyl) phosphonic acid]",< 100 nM
18,"O=P(O)(O)CP(=O)(O)OC[C@H]1O[C@@H](n2nnc3c(N4CCC[C@H]4c4ccccc4)nc(Cl)nc32)[C@H](O)[C@@H]1O [Example 11, (((((2R,3S,4R,5R)-5-(5-chloro-7-((S)-2-phenylpyrrolidin-1-yl)-3H-[1,2,3]triazolo[4,5-d]pyrimidin-3-yl)-3,4-dihydroxytetrahydrofuran-2-yl)methoxy)(hydroxy)phosphoryl)methyl) phosphonic acid]",100 to 1000 nM
19,"O=P(O)(O)CP(=O)(O)OC[C@H]1O[C@@H](n2nnc3c(N4CCCC[C@H]4c4ccccc4)nc(Cl)nc32)[C@H](O)[C@@H]1O [Example 16, (((((2R,3S,4R,5R)-5-(5-chloro-7-((S)-2-phenylpiperidin-1-yl)-3H-[1,2,3]triazolo[4,5-d]pyrimidin-3-yl)-3,4-dihydroxytetrahydrofuran-2-yl)methoxy)(hydroxy)phosphoryl)methyl) phosphonic acid]",< 100 nM

# Reference: patent publication US11576922B2, “CD73 inhibitors” (ORIC Pharmaceuticals, Inc., priority 2017, dated 2023)
